{
  "source": "patent US20210228560A1",
  "about": "(Centogene IP GmbH, priority 2011, published 2021)",
  "key": {"wild type GLA": {"target": "T1, wild type GLA (Homo sapiens, UniProt P06280)", "T1 sequence (P06280 32-429)": "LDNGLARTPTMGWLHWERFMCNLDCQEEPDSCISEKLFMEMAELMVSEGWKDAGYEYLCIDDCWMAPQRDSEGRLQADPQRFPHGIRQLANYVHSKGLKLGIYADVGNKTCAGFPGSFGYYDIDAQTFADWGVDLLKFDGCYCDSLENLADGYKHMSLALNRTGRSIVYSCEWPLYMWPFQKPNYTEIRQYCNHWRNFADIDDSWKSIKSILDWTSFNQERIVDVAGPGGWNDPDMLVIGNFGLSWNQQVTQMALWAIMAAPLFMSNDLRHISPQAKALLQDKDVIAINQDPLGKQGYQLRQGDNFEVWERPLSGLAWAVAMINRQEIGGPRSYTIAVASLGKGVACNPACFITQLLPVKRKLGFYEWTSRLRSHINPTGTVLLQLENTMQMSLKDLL", "format": "cell-based", "procedure": "A bacterial clone containing the full length cDNA of α-galactosidase A (IRAUp969H0320D, aligned to accession no. NM_000169.2 (GeneBank)) was received form ImaGenes GmbH, Berlin, Germany. Amplification was performed with the primers 5′-[…] […]-3′ (SEQ ID NO:1) and 5′-[…]-3′ (SEQ ID NO:2) introducing unique restriction sites for BamHI and BstBI. The PCR was taken out using cloned Pfu DNA polymerase (Stratagene). The cDNA was subcloned into pGEM-T Easy vector (Promega). Prior to ligation, the cDNA insert was incubated with Taq polymerase (Qiagen) to add a poly (A) overhang at the 3′-end for TA-cloning. For expression, the α-Gal A cDNA was ligated into target vector pcDNA3.1/V5-His6 (Invitrogen)."}, "[1]": {"test_system": "α-Gal A protein (GLA mutants)", "experiment": "Western blot of GLA protein levels in cells transfected with GLA mutants", "format": "cell-based", "conditions": "DGJ and Ambroxol compared to DGJ alone; FIG. 4", "procedure": "Western blot analysis for the detection of α-Gal A protein was performed using a commercially available rabbit anti-α-Gal A polyclonal antibody ([H-104] Santa Cruz) Furthermore, a mouse GAPDH monoclonal antibody ([6C5] abcam) was used as an internal loading control.\nThe cells were then rinsed off from the wells, transferred to micro centrifuge tubes and spun at 14000×g for 10 minutes at 4° C. to pellet the cell debris. The supernatant was used for the analysis. After the determination of protein concentration, […] protein were mixed with a suitable volume of 5× Laemmli loading buffer, boiled for 5 minutes on a thermo shaker (Eppendorf), centrifuged at 14000×g for 10 minutes at 4° C. and loaded on a Criterion precast 4-15% Tris-HCl gel (Bio-Rad). Proteins were transferred electorophoretically to a Nitrocellulose (Amersham Hybond ECL) membrane (GE Healthcare). The membrane was blocked with 5% (w/v) non-fat dried skimmed milk in TBS-Tween 20 [10 mM Tris/HCl (pH 7.5) with 150 mM NaCl and 0.1% Tween 20] at room temperature for 1 hour, and then treated with a primary antibody against GAPDH diluted 1:10000 in a milk/blot solution [3% (w/v) non-fat dried skimmed milk in TBS-Tween 20] at 4° C. overnight. […] Following extensive washing with TBS-Tween 20, protein bands were visualized with an Odyssey Infrared Imager (Li-Cor) and quantified using the Odyssey software."}, "GLA[A156V]": {"target": "T2, GLA[A156V] (Homo sapiens, UniProt P06280, A156V)", "T2 sequence (P06280 32-429 A156V)": "T1 sequence (P06280 32-429) with A125V", "format": "cell-based", "conditions": "untreated = 1.0, FIG. 5A"}, "[2]": {"test_system": "acid α-glucosidase mutants", "format": "cell-based", "procedure": "A bacterial clone containing the full length cDNA of […] (IRATp970C0971D, aligned to accession no. NM_000152.3, GeneBank) was received form ImaGenes GmbH, Berlin, Germany. Amplification was performed with the primers 5′-TAGGAGCTGTCCAGGCCATC-3′ (SEQ ID NO:3) and 5′-GAGAGACTAACACACTCCGC-3′ (SEQ ID NO:4). The PCR was carried out using iProof DNA Polymerase (BioRad). The cDNA was subcloned into pCRII TA TOPO vector (Invitrogen). Prior to ligation, the cDNA insert was incubated with Taq polymerase (Qiagen) to add a poly (A) overhang at the 3′-end for TA-cloning. For expression, the GAA cDNA was ligated into target vector pcDNA3.1/V5-His6 (Invitrogen) using sticky end ligation utilizing unique restriction sites (HindIII, XhoI) offered by both vectors multiple cloning sites.\nSample preparation was carried out analogously to the α-galactosidase A recordings. As substrate, a 1.3 mg 4-Methylumbelliferyl-α-D-Glukopyranoside/ml solution (in sodium acetate buffer, pH 4.0) was used and 5 μg sample/reaction were added. The reaction was incubated for 60 minutes at 37° C. and stopped with 1M Glycine-NaOH, pH 10.5."}, "[3]": {"target": "T3, Wild type α-galactosidase A (Replagal®, agalsidase alfa) (Homo sapiens, UniProt P06280)", "T3 construct": "purchased Shire Pharmaceuticals Replagal", "T3 sequence (P06280 32-429)": "T1 sequence (P06280 32-429)", "experiment": "Inhibition of agalsidase alfa (Replagal), cell free", "format": "biochemical", "conditions": "for reduction of the enzyme activity, Ambroxol only: FIG. 8 inlay"}},
  "note": "Numbering of substitutions follows the chain as printed. “Also recorded” adds a separate entry of the source. Like-named read-outs stand apart in the source and are kept apart here.",
  "data": [
    {"smiles": "Nc1c(Br)cc(Br)cc1CN[C@H]1CC[C@H](O)CC1", "note": "[Ambroxol, 2-amino-3,5-dibromo-N-[trans-4-hydroxycyclohexyl]benzylamine]", "values": [
      {"measurement": "enzyme activity of the GLA of the wild type", "setting": "wild type GLA; 40 μM Ambroxol alone, FIG. 1", "value": "increase in enzyme activity"},
      {"measurement": "inhibition of wild type GLA", "setting": "wild type GLA; Ambroxol dose-response, FIG. 2", "value": "not inhibiting"},
      {"measurement": "Ambroxol titer at or beyond which local maximum or saturation of wild type GLA activity", "setting": "wild type GLA; FIG. 2", "value": "> 60", "unit": "µM"},
      {"measurement": "EC50", "setting": "wild type GLA; read-out: EC50 of increase of wild type GLA activity", "value": 21.2, "unit": "µM"},
      {"measurement": "amount of Gal A protein in the cell (Western blot)", "setting": "[1]", "value": "higher amount of Gal A"},
      {"measurement": "increase of GLA[A156V] activity", "setting": "GLA[A156V]; 8 μM DGJ and 40 μM Ambroxol", "value": 3.8, "unit": "fold"},
      {"measurement": "increase of GLA[A156V] activity", "setting": "GLA[A156V]; 20 μM DGJ and 40 μM Ambroxol", "value": "up to 8 fold"},
      {"measurement": "activity of acid α-glucosidase, Ambroxol in combination with NB-DNJ", "setting": "[2]; 20 μM NB-DNJ + 40 μM Ambroxol compared to 20 μM NB-DNJ alone, FIG. 7", "value": "enhanced"},
      {"measurement": "enzyme activity of mutations Y455F, P545L and L552P, combined treatment", "setting": "[2]; 20 μM NB-DNJ and 40 μM Ambroxol, FIG. 7A", "value": "significantly increased"},
      {"measurement": "activity of mutant acid α-glucosidase, Ambroxol alone", "setting": "[2]; 40 μM Ambroxol without chaperone", "value": "not leading to an enhancement"},
      {"measurement": "activity when additionally treated with Ambroxol", "setting": "[2]; mutations Y455F, P545L and L552P, compared to NB-DNJ", "value": "tendency for higher activities"},
      {"measurement": "effect of Ambroxol on the inhibition of WT α-galactosidase A by DGJ", "setting": "[3]; 40 μM Ambroxol", "value": "no effect"},
      {"measurement": "effect of Ambroxol alone on the enzyme in the cell free assay", "setting": "[3]; cell free", "value": "not inhibited; also recorded: neither an inhibitory nor a stimulating effect"},
      {"measurement": "reduction of the enzyme activity, Ambroxol only", "setting": "[3]; pH 4.5", "value": "No reduction"},
      {"measurement": "reduction of the enzyme activity, Ambroxol only", "setting": "[3]; pH 6.7", "value": "No reduction"}
    ]}
  ]
}
